Consider 3 molecules from ChEMBL document CHEMBL1949662, “JBIR-94 and JBIR-125, antioxidative phenolic compounds from Streptomyces sp. R56-07” (J Nat Prod, 2012).

A word on the pIC50: it is the IC50 on a negative log10 scale, so that one unit is a factor of ten.

The experiment deals with Radical scavenging activity. Nature of the experiment: Antioxidant activity assessed as DPPH free radical scavenging activity after 30 mins. Format: functional. In general terms: Loss of DPPH colour is used to gauge radical scavenging.

pIC50: −log10 of the molar value.

Take `CC(=O)NCCCCN(CCCNC(=O)CCc1ccc(O)cc1)C(=O)CCc1ccc(O)cc1`: the pIC50 was 4.45.
The same measure for `COc1cc(CCC(=O)NCCCCNC(=O)CCc2ccc(O)c(OC)c2)ccc1O`: 4.94.
The same measure for `Cc1c(C)c2c(c(C)c1O)CC[C@@](C)(CCC[C@H](C)CCC[C@H](C)CCCC(C)C)O2` [ALPHA-TOCOPHEROL]: 5.05.
